From patent US20250197374A1, “WEE1 DEGRADING COMPOUNDS AND USES THEREOF” (BRISTOL-MYERS SQUIBB COMPANY, priority 2023, published 2025)
Read-outs that look alike come from different tables or passages of the source.

Columns and labels:
Format in all cases: cell-based
[1] = biological target: T1, WEE1 (Homo sapiens, UniProt P30291+Q96SW2); experiment: WEE1-ePL degradation assay (293T-LentiX, InCELL Hunter luminescence, 4 hr); settings: for DC50: LentiX-HEK293T cells expressing WEE1-ePL, 4 hr incubation, read-out: 293T-LentiX WEE1-ePL Degradation 4 hr EC50; for 293T-LentiX WEE1-ePL Degradation 4 hr YMin (%): lower limit of fit, % of DMSO control signal remaining
T1 construct: C-terminal ePL-tagged (DiscoverX, Fremont, CA) full-length WEE1 expression construct; expressed in transfected cells; host or cells: LentiX-HEK293T (Invitrogen), lentivirally transduced; the cells also over-express GSPT1-GN
Procedure, shortened: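 EC50 comes from a four-parameter logistic fit of ePL luminescence (InCELL Hunter), with DMSO control defining Ymax. Compounds ran as 10-point 3-fold dilutions from 1 or 10 µM for 4 h at 37 °C. Cells were HEK293T-LentiX with ePL-tagged full-length WEE1 and over-expressed Cereblon-resistant GSPT1-GN.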

[2] = system: MKN45 cells; experiment: MKN45 cell proliferation assay (Cell-Titer-Glo, 120 hr); settings: for EC50: read-out: MKN45 Cell Prolif. 120 hr EC50; for MKN45 Cell Prolif. 120 hr YMin (%): minimal percent of DMSO control observed
Source text: (§1) MKN45 cells were obtained from Celgene internal cell banks and cultured in RPMI complete media (RPMI-1640, 1× Penicillin/Streptomycin, 1× glutamine, 1× Sodium Pyruvate, Non-essential Amino Acids, 10% Fetal Bovine serum, all component from Thermo-Fisher). MDA-MB-231 cells were obtained from the ATCC (HTB-26) and cultured in RPMI-1640 and 10% Fetal Bovine serum; MDA-MB-231 cells were expanded and stored as aliquots in liquid nitrogen in Celgene internal cell banks. Compounds were dispensed into 384-well plates using an HP DE300 compound printer in triplicate with 8 compounds on each plate. Compounds were dispensed into 384-well black clear bottom plates (Corning #3764BC) using an EDC acoustic dispenser at BMS. For each compound, a 10-point dose response was printed at half-log dilutions starting at either 1 uM or 10 uM in triplicate for MKN45 cells and in duplicate for MDA-MB-231 cells. The DMSO concentration was kept constant for a final assay concentration of 0.1% per well assuming 50 ul final media volume. Compound plates were sealed and frozen at −20 C until use.
(§2) For each assay batch, compound plates were thawed and allowed to reach room temperature, and cells were seeded at 400 MKN45 cells per well, or 800 MDA-MB-231 cells per well, in 50 ul media listed above for each cell line. After 120 hours of incubation at 37 C and 5% CO2, cells were lysed by addition of 25 μL of Cell-Titer-Glo Reagent (Promega Corporation, Madison, WI), as per manufacturer's instructions, protected from light, shaken for 45 minutes, and total luminescence read by a Perkin Elmer Envision plate reader. Total luminescence signal is linearly correlated with cell number remaining in the well.
(§3) Luminescence data was processed per plate by subtracting reagent-only “blank” well luminescence from all measured values and calculating a percent of DMSO control value for each treatment well. Then, to determine the half-maximal effective concentration (EC50) values for cell growth inhibition, a four parameter logistic model was fit to the data for each DMSO-normalized compound: Sigmoidal Dose-Response Model: (FIT=(A+((B−A)/1+((C/x)^D)))) where C is the inflection point ([…]), D is the Hill slope, and A and B are the low and high limits of the fit respectively. The lower limit of the fit (value A) is referred to as Ymin-calculated. The minimal percent of DMSO control that is observed in the concentrations tested for each compound is labeled as “Ymin-obs”, and was recorded and reported in the tables. Sigmoidal fit curves were processed and evaluated using Activity Base (IDBS, Alameda, CA) or using Dotmatics (Boston, MA). N/A=not available at the present time.

[3] = system: MDA-MB-231 cells; experiment: MDA-MB-231 cell proliferation assay (Cell-Titer-Glo, 120 hr); settings: for EC50: read-out: MDA-MB 231 Cell Prolif. 120 hr EC50; for MDA-MB 231 Cell Prolif. 120 hr YMin (%): minimal percent of DMSO control observed
Source text: as §1, §2, §3

[4] = Homo sapiens, MDA-MB-231, 120 h

T1 sequence (P30291 whole entry): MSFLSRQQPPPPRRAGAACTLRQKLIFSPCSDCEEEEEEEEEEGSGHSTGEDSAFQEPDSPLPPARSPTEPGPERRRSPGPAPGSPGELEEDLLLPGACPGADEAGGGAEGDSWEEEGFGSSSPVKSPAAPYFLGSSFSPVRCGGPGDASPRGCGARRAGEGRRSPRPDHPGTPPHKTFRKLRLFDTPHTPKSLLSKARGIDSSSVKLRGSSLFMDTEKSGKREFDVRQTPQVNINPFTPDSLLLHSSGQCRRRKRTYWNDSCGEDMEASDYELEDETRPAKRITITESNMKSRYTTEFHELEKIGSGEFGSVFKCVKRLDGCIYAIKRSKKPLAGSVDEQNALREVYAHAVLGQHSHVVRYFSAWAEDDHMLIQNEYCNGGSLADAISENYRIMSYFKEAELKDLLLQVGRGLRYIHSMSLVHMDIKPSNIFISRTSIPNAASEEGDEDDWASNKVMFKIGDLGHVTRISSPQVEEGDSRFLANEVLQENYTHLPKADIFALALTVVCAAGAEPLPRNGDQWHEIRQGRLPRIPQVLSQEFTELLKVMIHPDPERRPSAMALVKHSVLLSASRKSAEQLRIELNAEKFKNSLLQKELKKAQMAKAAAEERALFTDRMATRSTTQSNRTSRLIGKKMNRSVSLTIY
T1 sequence (Q96SW2 whole entry): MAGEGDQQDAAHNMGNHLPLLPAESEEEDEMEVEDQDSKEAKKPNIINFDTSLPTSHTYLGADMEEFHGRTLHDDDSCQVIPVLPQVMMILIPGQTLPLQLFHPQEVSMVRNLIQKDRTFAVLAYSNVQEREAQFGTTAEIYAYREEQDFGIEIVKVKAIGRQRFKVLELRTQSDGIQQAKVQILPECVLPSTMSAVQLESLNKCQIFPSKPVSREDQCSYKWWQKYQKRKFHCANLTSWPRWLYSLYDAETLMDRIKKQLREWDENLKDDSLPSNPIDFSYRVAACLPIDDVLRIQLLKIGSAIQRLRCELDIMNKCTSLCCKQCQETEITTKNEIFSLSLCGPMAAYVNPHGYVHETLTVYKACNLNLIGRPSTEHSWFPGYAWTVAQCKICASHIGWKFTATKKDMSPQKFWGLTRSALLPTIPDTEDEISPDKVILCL
T1 sequence (Q16531 whole entry partner): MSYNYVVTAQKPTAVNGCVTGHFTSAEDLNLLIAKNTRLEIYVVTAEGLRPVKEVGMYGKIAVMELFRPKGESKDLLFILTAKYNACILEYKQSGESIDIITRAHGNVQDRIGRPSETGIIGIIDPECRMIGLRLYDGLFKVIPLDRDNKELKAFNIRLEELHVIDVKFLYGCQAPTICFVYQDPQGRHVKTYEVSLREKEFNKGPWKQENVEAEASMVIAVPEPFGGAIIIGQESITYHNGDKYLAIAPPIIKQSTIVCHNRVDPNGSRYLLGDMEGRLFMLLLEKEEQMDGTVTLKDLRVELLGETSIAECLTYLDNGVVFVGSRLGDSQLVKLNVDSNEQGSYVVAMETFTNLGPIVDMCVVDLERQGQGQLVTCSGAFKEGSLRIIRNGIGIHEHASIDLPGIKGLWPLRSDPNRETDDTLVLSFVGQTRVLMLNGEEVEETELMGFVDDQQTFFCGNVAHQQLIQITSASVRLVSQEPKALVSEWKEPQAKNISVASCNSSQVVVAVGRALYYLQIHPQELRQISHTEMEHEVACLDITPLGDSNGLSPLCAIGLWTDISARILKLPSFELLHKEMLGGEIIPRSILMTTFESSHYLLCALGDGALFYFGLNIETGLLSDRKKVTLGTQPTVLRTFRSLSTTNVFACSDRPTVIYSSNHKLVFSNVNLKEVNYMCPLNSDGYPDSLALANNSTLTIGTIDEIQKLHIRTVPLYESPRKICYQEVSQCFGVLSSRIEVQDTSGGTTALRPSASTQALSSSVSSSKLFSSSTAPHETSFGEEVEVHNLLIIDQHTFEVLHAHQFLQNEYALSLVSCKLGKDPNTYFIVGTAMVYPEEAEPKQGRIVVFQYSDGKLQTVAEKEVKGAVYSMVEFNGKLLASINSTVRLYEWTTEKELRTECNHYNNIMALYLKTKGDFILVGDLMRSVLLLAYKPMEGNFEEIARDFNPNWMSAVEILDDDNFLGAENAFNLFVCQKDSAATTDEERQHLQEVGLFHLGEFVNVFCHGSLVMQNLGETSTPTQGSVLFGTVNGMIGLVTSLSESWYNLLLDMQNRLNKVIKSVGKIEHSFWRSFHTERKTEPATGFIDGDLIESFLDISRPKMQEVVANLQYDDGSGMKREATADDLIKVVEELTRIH

| DC50 [1] [nM] | 293T-LentiX WEE1-ePL Degradation 4 hr YMin (%) [1] [%] | EC50 ([2]; Homo sapiens, MKN-45, 120 h) [nM] | EC50 [3, 4] [nM] | EC50 [2] [nM] | EC50 [3] [nM] | SMILES | MKN45 Cell Prolif. 120 hr YMin (%) [2] [%] | MDA-MB 231 Cell Prolif. 120 hr YMin (%) [3] [%] |
| --- | --- | --- | --- | --- | --- | --- | --- | --- |
| 1 | 28.9 | 3 | 41 | – | – | COC[C@@H]1CN(Cc2cc(F)c3nc(N4CCC45CCOCC5)ncc3c2)C[C@H]1Oc1ccc2c(c1)CN([C@H]1CCC(=O)NC1=O)C2=O [Example 73, (3S)-3-(5-{[(3S,4S)-1-[(8-fluoro-2-{7-oxa-1-azaspiro[3.5]nonan-1-yl}quinazolin-6-yl)methyl]-4-(methoxymethyl)pyrrolidin-3-yl]oxy}-1-oxo-2,3-dihydro-1H-isoindol-2-yl)piperidine-2,6-dione] | 9.4 | 34.0 |
| 3 | 28.3 | 1 | 11 | – | – | COC[C@@H]1CN(Cc2cc3ccc(N4CCN(C(C)=O)C5(CC5)C4)cc3cn2)C[C@H]1Oc1ccc2c(c1)CN([C@H]1CCC(=O)NC1=O)C2=O [Example 88, (3S)-3-(5-{[(3S,4S)-1-[(7-{4-acetyl-4,7-diazaspiro[2.5]octan-7-yl}isoquinolin-3-yl)methyl]-4-(methoxymethyl)pyrrolidin-3-yl]oxy}-1-oxo-2,3-dihydro-1H-isoindol-2-yl)piperidine-2,6-dione] | 9.1 | 13.1 |
| 6 | 32.4 | 11 | 366 | – | – | O=C1CC[C@H](N2Cc3cc(O[C@H]4CCN(Cc5cc(F)c6nc(N7C[C@H]8CCO[C@H]8C7)ncc6c5)C4)ccc3C2=O)C(=O)N1 (single isomer, unassigned) [Example 9, (S)-3-(5-(((S)-1-((8-fluoro-2-((3aR*,6aR*)-hexahydro-5H-furo[2,3-c]pyrrol-5-yl)quinazolin-6-yl)methyl)pyrrolidin-3-yl)oxy)-1-oxoisoindolin-2-yl)piperidine-2,6-dione] | 11.7 | 45.1 |
| – | 29.6 | 2 | 48 | – | – | COC[C@@H]1CN(Cc2ccc3nc(N4C[C@@H]5CCO[C@@H]5C4)ccc3c2)C[C@H]1Oc1ccc2c(c1)CN([C@H]1CCC(=O)NC1=O)C2=O (single isomer, unassigned) [Example 16, (S)-3-(5-(((3S,4S)-1-((2-((3aS*,6aS*)-hexahydro-5H-furo[2,3-c]pyrrol-5-yl)quinolin-6-yl)methyl)-4-(methoxymethyl)pyrrolidin-3-yl)oxy)-1-oxoisoindolin-2-yl)piperidine-2,6-dione] | 10.8 | 43.7 |
| 12 | 40.9 | 233 | 61 | – | – | CC(C)(O)[C@@H]1CN(Cc2ccc3nc(C4CCOCC4)ccc3c2)C[C@H]1Oc1ccc2c(c1)CN([C@H]1CCC(=O)NC1=O)C2=O (racemic) [Example 137, rel-(3S)-3-(5-((4-(2-hydroxypropan-2-yl)-1-((2-(tetrahydro-2H-pyran-4-yl)quinolin-6-yl)methyl)pyrrolidin-3-yl)oxy)-1-oxoisoindolin-2-yl)piperidine-2,6-dione] | 70.6 | 77.3 |
| 1 | 29.4 | – | – | 1 | 13 | COC[C@@H]1CN(Cc2cc(F)c3nc(N4CCC(OC)C4)ccc3c2)C[C@H]1Oc1ccc2c(c1)CN([C@H]1CCC(=O)NC1=O)C2=O (single isomer, unassigned) [Example 98, (S)-3-(5-(((3S,4S)-1-((8-fluoro-2-((S*)-3-methoxypyrrolidin-1-yl)quinolin-6-yl)methyl)-4-(methoxymethyl)pyrrolidin-3-yl)oxy)-1-oxoisoindolin-2-yl)piperidine-2,6-dione] | 9.0 | 25.1 |
| 1 | 32.9 | 5 | 64 | – | – | O=C1CC[C@H](N2Cc3cc(O[C@H]4CCN(Cc5cc(F)c6nc(N7C[C@@H]8CCO[C@@H]8C7)ccc6c5)C4)ccc3C2=O)C(=O)N1 (single isomer, unassigned) [Example 81, (S)-3-(5-(((S)-1-((8-fluoro-2-((3aS*,6aS*)-hexahydro-5H-furo[2,3-c]pyrrol-5-yl)quinolin-6-yl)methyl)pyrrolidin-3-yl)oxy)-1-oxoisoindolin-2-yl)piperidine-2,6-dione] | 15.5 | 66.9 |
| 4 | 27.1 | 2 | 105 | – | – | COC[C@@H]1CN(Cc2cc(F)c3nc(C4CCOC(C)(C)C4)ncc3c2)C[C@H]1Oc1ccc2c(c1)CN([C@H]1CCC(=O)NC1=O)C2=O (stereo partly drawn) [Example 91, (3S)-3-(5-{[(3S,4S)-1-{[2-(2,2-dimethyloxan-4-yl)-8-fluoroquinazolin-6-yl]methyl}-4-(methoxymethyl)pyrrolidin-3-yl]oxy}-1-oxo-2,3-dihydro-1H-isoindol-2-yl)piperidine-2,6-dione] | 10.5 | 9.6 |
| 1 | 27.3 | 1 | 14 | – | – | COC[C@@H]1CN(Cc2cc(F)c3nc(N4CCC45CCOCC5)ccc3c2)C[C@H]1Oc1ccc2c(c1)CN([C@H]1CCC(=O)NC1=O)C2=O [Example 72, (3S)-3-(5-{[(3S,4S)-1-[(8-fluoro-2-{7-oxa-1-azaspiro [3.5]nonan-1-yl}quinolin-6-yl)methyl]-4-(methoxymethyl)pyrrolidin-3-yl]oxy}-1-oxo-2,3-dihydro-1H-isoindol-2-yl)piperidine-2,6-dione] | 9.3 | 20.7 |
| 6 | 78.0 | 1 | 5960 | – | – | CC(C)C[C@@H]1CN(Cc2cc(F)c3nc(C4CCOCC4)ccc3c2)C[C@H]1Oc1ccc2c(c1)CN([C@H]1CCC(=O)NC1=O)C2=O (relative stereo) [Example 130, (3S)-3-(5-{[(3S*,4R*)-1-{[8-fluoro-2-(oxan-4-yl)quinolin-6-yl]methyl}-4-(2-methylpropyl)pyrrolidin-3-yl]oxy}-1-oxo-2,3-dihydro-1H-isoindol-2-yl)piperidine-2,6-dione] | 94.4 | 84.1 |
| 1 | 27.2 | 1 | 12 | – | – | COC[C@@H]1CN(Cc2cc(F)c3nc(C4CC(C)OC(C)C4)ccc3c2)C[C@H]1Oc1ccc2c(c1)CN([C@H]1CCC(=O)NC1=O)C2=O (relative stereo) [Example 52, re1-(3S)-3-(5-{[(3S,4S)-1-{[2-(2,6-dimethyloxan-4-yl)-8-fluoroquinolin-6-yl]methyl}-4-(methoxymethyl)pyrrolidin-3-yl]oxy}-1-oxo-2,3-dihydro-1H-isoindol-2-yl)piperidine-2,6-dione] | 8.3 | 16.7 |
